According to patent US7932051B2, “Blood and urine test” (R-Biopharm AG, priority 2003, dated 2011):
Like-named read-outs stand apart in the source and are kept apart here.

System: microbial inhibition test (Premi®Test)
Procedure: Urine samples were examined using microbial inhibition test ampoules produced according to the methods described in EP 0005891 with the nutrients present in the agar. Said test is also known as Premi®Test (commercially available from DSM, Delft, The Netherlands).
Samples were examined as described in Example 1. CaCl2.2H2O was dissolved in water or chicken meat fluid, in concentrations of 0, 0.0078, 0.0156, 0.0312, 0.0625, 0.125, 0.25, 0.5 and 1 M. The samples were added to the test ampoules. After a pre-incubation for 20 minutes at room temperature the sample was removed and the test was incubated in a water bath at 64±1° C. following the instructions of the manufacturer. The results were obtained after 165 minutes for chicken meat fluid and 185 minutes in case of water, by reading the change of color from purple to yellow.

In the case of [Ca+2].[Cl-].[Cl-] [CaCl2, Calcium Chloride], the “Color observed in microbial inhibition test” value (CaCl2 0.0078 M in chicken meat fluid, read after 165 minutes) is reported as “Yellow”, the “Color observed in microbial inhibition test” value (CaCl2 0.0078 M in water, read after 185 minutes) is reported as “Yellow” and the “Color observed in microbial inhibition test” value (CaCl2 0.0156 M in chicken meat fluid, read after 165 minutes) is reported as “Yellow”. The “Color observed in microbial inhibition test” value (CaCl2 0.0156 M in water, read after 185 minutes) was “Yellow”, the “Color observed in microbial inhibition test” value (CaCl2 0.0312 M in chicken meat fluid, read after 165 minutes) was “Yellow” and the “Color observed in microbial inhibition test” value (CaCl2 0.0312 M in water, read after 185 minutes) was “Yellow”. The “Color observed in microbial inhibition test” value (CaCl2 0.0625 M in chicken meat fluid, read after 165 minutes) was “Yellow”, the “Color observed in microbial inhibition test” value (CaCl2 0.0625 M in water, read after 185 minutes) was “Yellow” and the “Color observed in microbial inhibition test” value (CaCl2 0.125 M in chicken meat fluid, read after 165 minutes) was “Yellow”. For the same compound, the “Color observed in microbial inhibition test” value (CaCl2 0.125 M in water, read after 185 minutes) was “Yellow”, the “Color observed in microbial inhibition test” value (CaCl2 0.25 M in chicken meat fluid, read after 165 minutes) was “Yellow” and the “Color observed in microbial inhibition test” value (CaCl2 0.25 M in water, read after 185 minutes) was “Yellow”. The “Color observed in microbial inhibition test” value (CaCl2 0.5 M in chicken meat fluid, read after 165 minutes) was “Yellow”, the “Color observed in microbial inhibition test” value (CaCl2 0.5 M in water, read after 185 minutes) was “Purple” and the “Color observed in microbial inhibition test” value (CaCl2 1 M in chicken meat fluid, read after 165 minutes) was “Yellow”. The “Color observed in microbial inhibition test” value (CaCl2 1 M in water, read after 185 minutes) was “Purple”, the “Concentration of CaCl2 with no inhibition” value (in chicken meat fluid) was “up to 1 M” and the “Concentration of CaCl2 that does not influence the test results” value (in water) was “up to 0.25 M”.
